In US5714148A, “Chemical compounds” (Zeneca Limited, priority 1992, dated 1998):

Assay: Unspecified tests of activity
Settings: tests not specified

O=C(O)CC[C@H](NC(=O)Oc1ccc(N(CCI)CCI)cc1)C(=O)O [Example 33]
activity in tests: good activity
